Measurements from the supplement of paper PMC10307832.

What was measured:
Experiment in all cases: relative viability (nuclei count vs DMSO), 5 days (fraction); higher = more cells survive
[1] = compound: COc1cc2ncn(-c3cc(OCc4ccccc4C(F)(F)F)c(C(N)=O)s3)c2cc1OC
Outline: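 A plate was accepted only when its control CV was below 25% and the cells had doubled at least once. Viability is defined from nuclear counts as treated wells divided by vehicle wells, with the median taken across plates. That median covers lung cancer cell lines grown in 1536-well plates, dosed by pinning at five √10-spaced library-drug concentrations, and counted in MetaXpress from 4× Hoechst images after 5 days.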

[2] = compound: COc1cc2ncn(-c3cc(OCc4ccccc4C(F)(F)F)c(C(N)=O)s3)c2cc1OC + CC1(C)CCC(c2ccc(Cl)cc2)=C(CN2CCN(c3ccc(C(=O)NS(=O)(=O)c4ccc(N[C@H](CCN5CCOCC5)CSc5ccccc5)c(S(=O)(=O)C(F)(F)F)c4)cc3)CC2)C1 [Navitoclax] (partner 0.5 µM)
Outline: (§1)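 Values are medians from duplicate plates. Each reflects relative viability, defined as the nuclei count of treated wells over that of vehicle wells. Lung cancer cell lines in 1536-well plates were pin-tool dosed one day after seeding with one drug alone or with a fixed anchor-drug dose plus five library-drug doses (not always all listed) in √10 steps, then fixed, stained and imaged at 4× after 5 days.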

[3] = compound: COc1cc2ncn(-c3cc(OCc4ccccc4C(F)(F)F)c(C(N)=O)s3)c2cc1OC + Cc1cc(Nc2cc(N3CCN(C)CC3)nc(Sc3ccc(NC(=O)C4CC4)cc3)n2)n[nH]1 [Tozasertib] (partner 0.1 µM)
Outline: as §1

[4] = compound: COc1cc2ncn(-c3cc(OCc4ccccc4C(F)(F)F)c(C(N)=O)s3)c2cc1OC + N=C(N)NC(=N)NCCc1ccccc1 [Phenformin] (partner 250 µM)
Outline: as §1

Row | Cell Line | relative viability ([1]; 0.05 µM) | relative viability ([1]; 0.1581 µM) | relative viability ([1]; 0.5 µM) | relative viability ([1]; 1.581 µM) | relative viability ([1]; 5 µM) | relative viability ([2]; first compound 0.05 µM) | relative viability ([2]; first compound 0.1581 µM) | relative viability ([2]; first compound 0.5 µM) | relative viability ([2]; first compound 1.581 µM) | relative viability ([2]; first compound 5 µM) | relative viability ([3]; first compound 0.05 µM) | relative viability ([3]; first compound 0.1581 µM) | relative viability ([3]; first compound 0.5 µM) | relative viability ([3]; first compound 1.581 µM) | relative viability ([3]; first compound 5 µM) | relative viability ([4]; first compound 0.05 µM) | relative viability ([4]; first compound 0.1581 µM) | relative viability ([4]; first compound 0.5 µM) | relative viability ([4]; first compound 1.581 µM) | relative viability ([4]; first compound 5 µM)
1 | NCI-H1650 | 0.899 | 0.951 | 0.396 | 0.19 | 0.147 | 1.29 | 1.2 | 0.471 | 0.153 | 0.121 | 0.304 | 0.324 | 0.221 | 0.225 | 0.154 | 0.389 | 0.341 | 0.175 | 0.129 | 0.179
2 | NCI-H1651 | 1.05 | 0.992 | 0.77 | 0.398 | 0.221 | 1.12 | 1.24 | 0.835 | 0.0858 | 0.0692 | 0.89 | 0.706 | 0.314 | 0.182 | 0.155 | 0.318 | 0.304 | 0.132 | 0.102 | 0.117
3 | NCI-H1666 | 0.971 | 0.907 | 0.74 | 0.451 | 0.449 | 0.814 | 1.05 | 0.308 | 0.225 | 0.205 | 0.569 | 0.507 | 0.388 | 0.343 | 0.39 | 0.591 | 0.554 | 0.337 | 0.315 | 0.299
4 | NCI-H1734 | 1.02 | 1.02 | 0.591 | 0.224 | 0.174 | 0.824 | 0.806 | 0.35 | 0.133 | 0.0981 | 0.272 | 0.245 | 0.226 | 0.224 | 0.17 | 0.417 | 0.329 | 0.322 | 0.18 | 0.121
5 | NCI-H1755 | 0.965 | 1.02 | 0.96 | 0.475 | 0.371 | 1.04 | 0.957 | 0.653 | 0.222 | 0.183 | 0.517 | 0.553 | 0.518 | 0.376 | 0.285 | 0.572 | 0.622 | 0.531 | 0.319 | 0.243
6 | NCI-H1793 | 1.08 | 1.12 | 0.568 | 0.208 | 0.191 | 0.928 | 0.544 | 0.187 | 0.221 | 0.139 | 0.34 | 0.296 | 0.292 | 0.239 | 0.191 | 0.367 | 0.413 | 0.182 | 0.17 | 0.136
7 | NCI-H1915 | 1.01 | 0.947 | 0.784 | 0.132 | 0.105 | 0.758 | 0.739 | 0.539 | 0.0643 | 0.0409 | 0.499 | 0.515 | 0.352 | 0.166 | 0.142 | 0.373 | 0.361 | 0.286 | 0.0964 | 0.0866
8 | NCI-H1944 | 1.18 | 1.03 | 0.707 | 0.23 | 0.141 | 1.04 | 1.06 | 0.785 | 0.189 | 0.123 | 0.297 | 0.3 | 0.274 | 0.23 | 0.216 | 0.211 | 0.234 | 0.174 | 0.106 | 0.0856
